Assay results taken from PMC10367067, “A Series of Non-Oxido V^IV Complexes of Dibasic ONS Donor Ligands: Solution Stability, Chemical Transformations, Protein Interactions, and Antiproliferative Activity” (Inorganic Chemistry, 2023).
Read-outs that look alike come from different tables or passages of the source.

Assays:
[1] = system: NIH-3T3 (mouse embryonic fibroblasts) cells; assay: MTT assay, NIH-3T3 normal cells; assay type: cell-based; conditions: 48 h of exposure, mean ± SD
Protocol: (§1) HT-29 (colon cancer), HeLa (cervical cancer), and NIH-3T3 (mouse embryonic fibroblasts) cells were maintained in DMEM supplemented with 10% FBS, penicillin–streptomycin solution in a humidified (95% humidity) CO2 incubator (5% CO2). Thereafter, cells were harvested from the logarithmic phase and seeded into a 96-well plate at a concentration of 8 × 10^4 cells per well. After overnight seeding, cells were treated with different concentrations (2.5, 5, 10, 20, and 50 μM) of the tested ligands and vanadium complexes (H2L^1–4 and 1–4) for 48 h. The compounds’ stock solutions were prepared in DMSO. DMEM was used to prepare the final working concentration of the compounds, so that the final amount of DMSO is less than 2%. The effect of the complexes on the viability of the cells was evaluated through MTT dye reduction assay by measuring the optical density at 595 nm.[93] DMSO alone, used to dissolve the complexes, was also employed for the control group treatment.

[2] = system: HeLa (cervical cancer) cells; assay: MTT assay, HeLa cells; assay type: cell-based; conditions: for IC50: 48 h of exposure, mean ± SD; for selectivity index (SI), HeLa: NIH-3T3 vs HeLa, 48 h
Protocol: as §1

[3] = system: HT-29 (colon cancer) cells; assay: MTT assay, HT-29 cells; assay type: cell-based; conditions: for IC50: 48 h of exposure, mean ± SD; for selectivity index (SI), HT-29: NIH-3T3 vs HT-29, 48 h
Protocol: as §1

[4] = system: HeLa (cervical cancer) cells; design: method as in PMID 36598160, doi:10.1002/aoc.6082; conditions: identical experimental conditions; cited from earlier work
[5] = system: HT-29 (colon cancer) cells; design: method as in PMID 36598160, doi:10.1002/aoc.6082; conditions: identical experimental conditions; cited from earlier work
HT-29 cells = assay: Annexin V-FITC/PI apoptosis assay by flow cytometry; assay type: cell-based; conditions: 48 h, control 9%
Protocol: The apoptotic population induced by complexes 1 and 2 in HT-29 cells was evaluated using Annexin V-FITC Apoptosis Detection Kit (Abgenex) by a flow cytometer (BD Accuri C6 flow cytometer; BectoneDickinson).[125] HT-29 cells (3 × 10^5 cells/well) were cultured in a 6-well plate for 24 h. After the cells were adhered, different concentrations (5 and 10 μM) of the tested complexes were treated and incubated for further 48 h. Subsequently, the cells were collected by trypsinization and then suspended in 1X binding buffer. Finally, the suspension was stained with 5 μL of Annexin V and PI at room temperature and incubated for 15 min in the dark. Then, the samples were immediately analyzed under a BD Accuri C6 flow cytometer.

Solubility observations = assay type: physicochemical
From the text: The non-oxido vanadium(IV) complexes (1–4) were synthesized by the reaction of tridentate dibasic ONS donor dithiocarbazates H2L^1–4 with [V^IVO(acac)2] in a 2:1 molar ratio in CH3CN medium (Scheme 1). […] They are soluble in polar aprotic solvents like DMSO, DMF, DCM, THF, and CH3CN and are partially soluble in aqueous media. The solid-state characterization of all compounds was done through elemental analysis, FTIR, and also with single-crystal X-ray diffraction studies of 1–3, while the solution phase characterization was carried out through UV–vis, ESI-MS spectrometry, and EPR spectroscopy. Details of all the characterizations are described in the following sections.
(§2) EPR spectra were recorded 24 h after the dissolution of the most soluble compound, [V^IV(L^1)2] (1), in DMSO and in an aqueous solution in phosphate buffer at pH 7.4 (Figure 8). […] The spectrum in DMSO is very similar to that in CH2Cl2 (cfr. traces in Figures 6 and 8), with the coexistence of fac (1a) and mer (1b) isomers.

BSA = molecular target: T1, BSA (Bos taurus, UniProt P02769); assay: Fluorescence quenching titration of BSA with the complexes; assay type: binding, bovine; conditions: room temperature
T1 construct: purchased Sigma-Aldrich
Protocol: The interaction between complexes 1–4 and BSA was studied using fluorescence quenching spectroscopy on a PerkinElmer LS 55 instrument. The instrumental response was corrected by means of a correction function provided by the manufacturer. The fluorescence experiments were carried out at room temperature and are steady-state measurements. Electronic absorption spectra were measured on a PerkinElmer Lambda35.
Fatty acid free BSA stock solution was prepared in PBS buffer (10 mM, pH 7.4), and the concentration was determined spectrophotometrically considering the extinction coefficient 44,309 M^–1 cm^–1 at 280 nm.[107] Stock solutions of the complexes (ca. 8 × 10^–4 M) were prepared in DMSO and further diluted (1:10) immediately before running the experiments. […] Fluorescence emission spectra were measured at room temperature with λex = 295 nm between 310 and 500 nm. Fluorescence spectra containing the same amount of complex but no BSA were recorded and subtracted from each corresponding emission spectrum of the mixtures. […] UV–vis spectra were measured for each solution, and the absorbance at excitation and emission wavelengths were used to make corrections for inner filter effects and reabsorption.[108],[109]
The Stern–Volmer equation was used to fit the fluorescence quenching data[109] […]

[6] = Solution stability (ESI-MS, EPR); assay type: physicochemical
Protocol: The stability of all complexes was established in water containing solvents through UV–vis, ESI mass spectrometry, and NMR and EPR spectroscopy.
The aged solutions in MeOH/H2O 90/10 (v/v) were diluted in CH3CN and analyzed by ESI-MS (concentration 50 μM). For all complexes, the most important species remained those detected at t = 0 h, i.e., the non-oxido V^IV complexes [V^IV(L^1–4)2]; the V^V species [V^V(L^1–4)2]^+, derived from the oxidation of the previous one, and [V^VO2(L^1–4)]^− were also detected. At these experimental conditions, the non-oxido V^IV complexes seem to be stable after 24 h with a slight increase in the oxidation process, as indicated by the increment of the relative amount of […] (Figure S14). […] This was considered during the docking studies.
as §2

T1 sequence (P02769 25-607): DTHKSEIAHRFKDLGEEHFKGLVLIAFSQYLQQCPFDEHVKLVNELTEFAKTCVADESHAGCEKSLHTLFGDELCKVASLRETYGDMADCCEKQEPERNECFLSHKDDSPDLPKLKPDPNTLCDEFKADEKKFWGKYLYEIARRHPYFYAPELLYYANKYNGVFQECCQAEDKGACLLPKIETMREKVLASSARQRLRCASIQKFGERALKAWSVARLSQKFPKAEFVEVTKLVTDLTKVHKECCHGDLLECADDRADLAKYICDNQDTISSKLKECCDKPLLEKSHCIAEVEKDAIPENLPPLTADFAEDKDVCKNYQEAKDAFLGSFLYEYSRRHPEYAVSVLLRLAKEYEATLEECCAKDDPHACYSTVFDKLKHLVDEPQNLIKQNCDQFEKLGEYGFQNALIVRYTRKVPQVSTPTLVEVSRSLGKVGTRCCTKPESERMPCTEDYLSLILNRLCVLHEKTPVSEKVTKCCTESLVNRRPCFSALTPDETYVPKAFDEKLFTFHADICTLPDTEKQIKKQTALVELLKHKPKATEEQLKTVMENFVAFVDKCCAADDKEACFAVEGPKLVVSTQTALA

| Compound | IC50 ([1]; Mus musculus, NIH3T3) | IC50 ([2]; Homo sapiens, HeLa) | selectivity index (SI), HeLa [2] | IC50 ([3]; Homo sapiens, HT-29) | selectivity index (SI), HT-29 [3] | IC50 [4] | IC50 [5] | IC50 [1] | IC50 [2] | apoptotic cells (sum of early and late apoptosis) (HT-29 cells; 5 μM) | apoptotic cells (sum of early and late apoptosis) (HT-29 cells; 10 μM) | behaviour in minimum essential medium (MEM, no FBS) (Solubility observations; MEM instead of water) | solubility in phosphate buffer (Solubility observations; pH 7.4) | IC50 [3] | n (equivalent binding sites of BSA) (BSA; PBS pH 7.4) | KBC (binding constant) (BSA; PBS pH 7.4, from double logarithm plot) | stability by EPR in DMSO ([6]; DMSO, after 24 h) | stability by EPR in aqueous solution ([6]; phosphate buffer pH 7.4, after 24 h) |
| --- | --- | --- | --- | --- | --- | --- | --- | --- | --- | --- | --- | --- | --- | --- | --- | --- | --- | --- |
| CCN(CC)c1ccc(/C=N/NC(=S)SC)c(O)c1 [H2L^1] | 23.5 ± 0.6 µM | 15.7 ± 1.9 µM | 1.5 | 14.7 ± 0.6 µM | 1.6 | – | – | – | – | – | – | – | – | – | – | – | – | – |
| N.N.[Cl][Pt][Cl] [cisplatin] | – | – | – | – | – | 25.5 ± 0.8 µM | 32.7 ± 0.6 µM | – | – | – | – | – | – | – | – | – | – | – |
| CCN(CC)c1ccc2c(c1)[O][V]1([O]c3cc(N(CC)CC)ccc3C=NN=C(SC)[S]1)[S]C(SC)=NN=C2 (centres unmarked) [complex 1, [V^IV(L^1)2]] | – | – | 0.9 | – | 1.2 | – | – | 8.7 ± 1.1 µM | 9.3 ± 0.2 µM | 15.8% | 48.8% | precipitation was evident from the beginning | not completely soluble | 7.2 ± 0.6 µM | 0.89 | 2.6 × 10^4 | the pattern remains substantially unaltered, even though a significant decrease in the spectral intensity is detected | the resonances of [V^IV(L^1)2] are clearly visible |
